Consider two molecules from US9101613B2, “Methods for treating neurological disease” (Neurim Pharmaceuticals (1991) Ltd., priority 2006, dated 2015).

One may read the IC50 as the concentration that gives 50% inhibition. High values mean lower potency, low ones higher potency. What is called Ki is a dissociation constant, usually derived from enzyme kinetics or from competition with a known ligand. Lower therefore signals higher affinity.

The target of one data set is T1, 5-HT2A receptor (Homo sapiens, UniProt P28223).
T1 construct: expressed in transfected cells; host or cells: CHO-K1
Briefly: Serotonin receptor binding, [3H] Ketanserin, CHO-K1 membranes. The method, then: Aliquots of suspended membranes of human recombinant CHO-K1 cells stably expressing human 5-HT1A, 5-HT2A, 5-HT1B, 5-HT2B, 5-HT2C, 5-HT4, 5-HT6 or 5-HT7 receptors were pre-incubated at 25° C. with 1.5 nM [^3H] 8-OH-DPAT (5-HT1A), 1.5 nM [^3H] Ketanserin (5-HT2A), 0.01 nM [^125I] Cyanopindolol (5-HT1B), 1 nM [^3H] Mesulergine (5-HT2c), 0.7 nM [^3H] GR-113808 (5-HT4) or at 37° C. 1.2 nM [^3H] LSD (5-HT2B, 5-HT6 and 5-HT7) in buffer (50 mM Tris-HCl, pH 7.7) alone or in the presence of 1 nM, 10 nM, 0.1 μM, 1 μM, and 10 μM of N-[2-(5-methoxy-indol-3-yl)-ethyl]-commenamide, N-[2-(5-methoxy-indol-3-yl)-ethyl]-coumalylamide, N-[2-(5-methoxy-indol-3-yl)-ethyl]-comanilamide, N-[2-(5-methoxy-indol-3-yl)-ethyl]-2-methoxy-commenamide or N-[2-(5-methoxy-indol-3-yl)-ethyl]-chelidonamide for 60 minutes. The binding reaction was terminated and washed with 4 ml ice-cold 50 mM Tris-HCl buffer by vacuum filtration. Membranes were then collected, and the filters containing the bound ligands were assayed for the amount of radioactivity in a b-counter. Non-specific binding was evaluated using a reaction with 10 μM metergoline (5-HT1A), 1 μM mianserin (5-HT2A and 5-HT2c) or 10 μM serotonin (5-HT1B, 5-HT2B, 5-HT4, 5-HT6 and 5-HT7).

The subject of data set [1] is C57BL/6 mice. Put plainly: MPTP mouse model of Parkinson's disease, open field test. The data set is classed as in vivo. The text has this:
(§1) Three-month-old male C57BL/6 mice were housed in groups of 5 animals per cage (50 cm×25 cm×20 cm) in a temperature- and humidity-controlled environment with ad libitum access to food and water. Animals were maintained on a 12 hr light/dark schedule, with lights on at 7 A.M.
Six groups of mice were used: (1) the control mice treated with saline and vehicle (n=10), (2) the N-[2-(5-methoxy-indol-3-yl)-ethyl]-comanilamide control mice treated with saline and N-[2-(5-methoxy-indol-3-yl)-ethyl]-comanilamide at 100 or 200 mg/kg (n=5, respectively), (3) the MPTP mice treated with MPTP and vehicle (n=10) and (4) the N-[2-(5-methoxy-indol-3-yl)-ethyl]-comanilamide-treated MPTP mice treated with MPTP and N-[2-(5-methoxy-indol-3-yl)-ethyl]-comanilamide at 100 or 200 mg/kg (n=10, respectively). Mice received daily (i.p.) injections of saline or MPTP (30 mg/kg/day) dissolved in physiological saline for five consecutive days to induce Parkinsonism. […]
For the open field test, the mice were taken from their home cages and transported to the locomotor test chambers (40×40×50 cm) for 5 min and their behaviors were recorded as digital videos. The digital videos then were analyzed off-line. The distance of each mouse traveling in the locomotor test chamber was analyzed by the commercial software.

Another data set deals with PC12 cells. Briefly: Glutamate-induced loss of cell viability in PC12 cells (MTT). Format: cell-based. As to the method:
For the cell viability assays, 24 h after seeding in 96-well plates, the cultures were pretreated with N-[2-(5-methoxy-indol-3-yl)-ethyl]-comanilamide (100 pm, 1 nM, 10 nM, 100 nM, 1 uM and 10 uM) or melatonin (1 uM) for 0 h before exposure to 4 mM glutamate. After 24 h incubation, cellular viability was evaluated by MTT assay.
PC12 cell viability was determined by the conventional 3-(4,5-dimethylthiazol-2-yl)-2,5-diphenyltetrazolium bromide (MTT) assay. PC12 cells were treated with MTT solution (0.5 mg/ml) and were then incubated at 37° C. for 4 hrs. The medium was removed and 150 μl DMSO/well was added to dissolve formazan. The absorbance at 570 nm was recorded using an enzyme-linked immunosorbent assay reader and the percentage of cell growth inhibition was calculated as follows: Cell viability (%)=A570 (treatment)/A570 (control)×100.

The subject of data set [2] is C57BL/6 mice. Put plainly: MPTP mouse model of Parkinson's disease, striatal dopamine, DOPAC and HVA levels (HPLC). Format: in vivo.
From the text: as §1
(§2) Six groups of mice were used: (1) the control mice treated with saline and vehicle (n=10), (2) the N-[2-(5-methoxy-indol-3-yl)-ethyl]-comanilamide control mice treated with saline and N-[2-(5-methoxy-indol-3-yl)-ethyl]-comanilamide at 100 or 200 mg/kg (n=5, respectively), (3) the MPTP mice treated with MPTP and vehicle (n=10) and (4) the N-[2-(5-methoxy-indol-3-yl)-ethyl]-comanilamide-treated MPTP mice treated with MPTP and N-[2-(5-methoxy-indol-3-yl)-ethyl]-comanilamide at 100 or 200 mg/kg (n=10, respectively). Mice received daily (i.p.) injections of saline or MPTP (30 mg/kg/day) dissolved in physiological saline for five consecutive days to induce Parkinsonism. N-[2-(5-methoxy-indol-3-yl)-ethyl]-comanilamide or vehicle was administered (i.p.) once per day for 17 days, starting on the first day of MPTP injections. Open field test, pole test, forepaw stride length test and traction test were conducted on day 14, 15, 16 and 17 after the first injections of MPTP, respectively.
To measure striatal dopamine, DOPAC and HVA levels, mice were sacrificed at day 17 after the final injection of MPTP. The striata were dissected and stored at −70° C. before assays. Striatal dopamine levels were measured by high performance liquid chromatography (HPLC) with electrochemical detection.

In data set [3] the test system is C57BL/6 mice. Briefly: MPTP mouse model of Parkinson's disease, pole test. The data set is classed as in vivo.
From the text: as §1, §2
In the pole test, the mouse was placed head upward on the top of a vertical wooden rough-surfaced pole (diameter: 1 cm, height: 50 cm), then allowed to descend five times. Each mouse was habituated to the apparatus two sessions (one session per day) before the day of first MPTP injections. The total time until the mouse reached the floor with its four paws was recorded (T-total) as well as the time needed for the mouse to turn completely head downward (T-turn). For each session of five descents, the best performance was kept for the T-turn and T-total. If the mouse was unable to turn completely downwards, fell or slipped down, the default value of 20 s was taken into account.

[4] abbreviates: saline mice, 100 or 200 mg/kg i.p., both p>0.05.
Where [5] appears, read: MPTP mice, 100 or 200 mg/kg/day i.p.

T1 sequence (P28223 whole entry): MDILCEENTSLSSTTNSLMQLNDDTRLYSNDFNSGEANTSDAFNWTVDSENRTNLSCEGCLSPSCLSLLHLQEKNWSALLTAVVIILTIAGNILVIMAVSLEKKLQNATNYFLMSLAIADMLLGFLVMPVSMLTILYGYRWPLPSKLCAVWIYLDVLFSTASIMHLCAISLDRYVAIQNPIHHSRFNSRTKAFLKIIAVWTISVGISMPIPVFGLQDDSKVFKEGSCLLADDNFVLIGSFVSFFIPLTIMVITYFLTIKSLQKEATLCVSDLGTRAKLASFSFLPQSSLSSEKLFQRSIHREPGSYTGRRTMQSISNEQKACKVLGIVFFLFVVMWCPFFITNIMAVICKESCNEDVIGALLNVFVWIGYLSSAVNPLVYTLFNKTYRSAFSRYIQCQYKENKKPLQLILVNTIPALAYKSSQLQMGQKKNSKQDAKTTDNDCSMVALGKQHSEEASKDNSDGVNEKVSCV

As for `COc1ccc2[nH]cc(CCNC(=O)c3cc(=O)cc(C(=O)O)o3)c2c1` [N-[2-5-methoxy-indol-3-yl)-ethyl]-chelidonamide], at 5-HT2A receptor, the IC50 turned out to be 7.5 µM and the Ki is 2.14 µM.

With `COc1ccc2[nH]cc(CCNC(=O)c3cc(=O)cco3)c2c1` [N-[2-(5-methoxy-indol-3-yl)-ethyl]-comanilamide], in the data set with C57BL/6 mice [1] (MPTP mice, 100 or 200 mg/kg i.p. once per day, day 14, both p<0.01), the “traveled distance, open field test, vs MPTP mice” value is “showed more level of the traveled distance”. In addition, the “traveled distance, open field test, vs control mice” value with C57BL/6 mice [1] (setting [4]) is listed as “no significant difference in the traveled distance”. Moreover, the “effect on cell viability without glutamate” value with PC12 cells (10 uM, without glutamate) is listed as “had no effect on the cell viability”. The “effect on glutamate-induced loss of cell viability” value with PC12 cells (100 pm to 10 uM, all doses, 4 mM glutamate, 24 h, MTT) is on record as “significantly attenuated glutamate-induced loss of cell viability”. Also, the “striatal dopamine level vs MPTP mice” value in the data set with C57BL/6 mice [2] (MPTP mice, 100 or 200 mg/kg i.p., p<0.01 and p<0.05, respectively) is reported as “showed more level of dopamine concentration”. In addition, in the data set with C57BL/6 mice [2] (setting [5]), the “striatal DOPAC level” value is recorded as “ameliorated the MPTP-induced reductions”. In the data set on C57BL/6 mice [2] (setting [5]), the “striatal HVA level” value is “ameliorated the MPTP-induced reductions”. For the same molecule, in the data set on C57BL/6 mice [2] (setting [4]), the “striatal dopamine level vs control mice” value is reported as “no significant difference in dopamine level”. Also, the “T-turn, pole test, vs MPTP mice” value with C57BL/6 mice [3] (100 mg/kg i.p., p<0.05) is “showed less level of the T-turn”; in the data set on C57BL/6 mice [3] (200 mg/kg i.p., p>0.05), “no significant difference in the T-turn”. Moreover, the “T-turn, pole test, vs control mice” value in the data set with C57BL/6 mice [3] (setting [4]) is recorded as “no significant difference in the T-turn”.
